Data: US20240189315A1, “Cyclic Pyridine Derivatives as cGAS Inhibitors” (Boehringer Ingelheim International GmbH, priority 2022, published 2024)
Like-named read-outs stand apart in the source and are kept apart here.

Key:
[1] = system: pathway directly downstream of cGAS in cGAMP-stimulated THP1-Dual cells; conditions: Table 4; compounds and methyl ester prodrugs of PCT/EP2022/062480 and PCT/EP2022/062496; cited from earlier work
[2] = molecular target: T1, cellular cGAS activity in dsDNA-stimulated human whole blood (Homo sapiens (Human), UniProt Q8N884); conditions: Table 4; compounds and methyl ester prodrugs of PCT/EP2022/062480 and PCT/EP2022/062496; read-out: hWB IC50; cited from earlier work
T1 sequence (Q8N884 whole entry): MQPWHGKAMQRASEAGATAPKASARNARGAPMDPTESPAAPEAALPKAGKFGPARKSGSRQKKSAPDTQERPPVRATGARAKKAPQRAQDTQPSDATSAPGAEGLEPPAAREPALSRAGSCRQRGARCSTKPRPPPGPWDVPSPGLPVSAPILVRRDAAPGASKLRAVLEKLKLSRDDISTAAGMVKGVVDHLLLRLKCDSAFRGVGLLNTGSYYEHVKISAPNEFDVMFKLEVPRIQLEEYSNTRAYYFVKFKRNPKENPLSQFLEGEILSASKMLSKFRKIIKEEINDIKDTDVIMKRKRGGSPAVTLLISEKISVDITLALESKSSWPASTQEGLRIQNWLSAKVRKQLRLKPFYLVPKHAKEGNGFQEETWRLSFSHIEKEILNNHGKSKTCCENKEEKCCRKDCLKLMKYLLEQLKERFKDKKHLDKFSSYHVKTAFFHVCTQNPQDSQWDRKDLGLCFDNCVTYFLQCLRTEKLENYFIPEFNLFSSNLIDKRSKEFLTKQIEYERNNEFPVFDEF

[3] = molecular target: T2, cellular cGAS activity in baculovirus-stimulated THP1-Dual cells (Homo sapiens (Human), UniProt Q8N884); conditions: Table 4; compounds and methyl ester prodrugs of PCT/EP2022/062480 and PCT/EP2022/062496; read-out: THP1(vir) IC50; cited from earlier work
T2 sequence (Q8N884 whole entry): as above

[4] = molecular target: T2, cellular cGAS activity in baculovirus-stimulated THP1-Dual cells; assay: Human cGAS cell assay (THP1(vir) IC50): IFN induction in virus-stimulated THP1-Dual cells, IRF Lucia luciferase reporter; format: cell-based;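 also: Eight-point dilution series starting at 10 µM, 1% DMSO, 18 h at 37 °C, luminescence read-out, virus-free wells as 0% and DMSO-treated virus-stimulated wells as 100%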
[5] = system: pathway directly downstream of cGAS in cGAMP-stimulated THP1-Dual cells; assay: cGAMP stimulated counter cell assay (THP1(cGAMP) IC50): IFN induction in cGAMP-stimulated THP1-Dual cells; format: cell-based, human; conditions: for IC50: Homo sapiens, THP1-Dual; for Ratio THP(cGAMP) IC50/ THP(vir) IC50: selectivity for cGAS inhibition
From the text: 6.2 Method: Human cGAS Cell Assay and cGAMP Stimulated Counter Cell Assay (THP1(vir) IC50 and THP1(cGAMP) IC50)
THP1-Dual™ cells (InvivoGen #thpd-nfis) expressing IRF dependent Lucia luciferase reporter were used as basis for both assays. For the detection of cellular cGAS activity cells were stimulated by a baculovirus (pFastbac-1, Invitrogen, no coding insert) infection that delivers the cGAS enzyme stimulating double-stranded DNA (measurement of THP1(vir) IC50).
For the counter assay, cells were stimulated by cGAMP (SigmaAldrich #SML1232) to activate the identical pathway independent and directly downstream of cGAS (measurement of THP1(cGAMP) IC50). Pathway activity was monitored by measuring the Lucia luciferase activity induced by either DNA stimulated cGAS enzyme activity (measurement of THP1(vir) IC50) or by cGAMP directly (measurement of THP1(cGAMP) IC50, counter assay).
Compounds were delivered in 10 mM DMSO solution, serially diluted and transferred to the 384 well assay plate (Greiner #781201) using an Echo acoustic dispenser. Typically, 8 concentrations were used with the highest concentration at 10 μM in the final assay volume followed by ˜1:5 dilution steps. DMSO concentration was set to 1% in the final assay volume. The 384 well assay plate contained 21 test compounds (column 1-22), and DMSO in column 23 and 24.
Cells, cultivated according to manufacturer conditions, were harvested by centrifugation at 300 g/10 min and were then resuspended and diluted to 1.66E5 cells/ml in fresh cell culture medium (RPMI 1640 (Gibco #A10491-01), 10% FCS (Gibco #10500), 1× GlutaMax (Gibco #35050-061), 1× Pen/Strep solution (Gibco #15140-122), 100 μg/ml Normocin (InvivoGen #ant-nr), 100 μg/ml Zeocin (InvivoGen #ant-zn), 10 μg/ml Blasticidin S (Life Technologies #A11139-03)). The baculovirus solution was then added 1:200 (have varied according to virus batch) to the cells (measurement of THP1(vir) IC50). […] 30 μL of the cell/virus-mix were added to each well of the compound plate from column 1-23 via MultiDrop Combi dispenser (5000 cells/well). In column 24, 30 μl/5000 cells/well without virus were added as a low control.
The plates were then incubated for 18 h at 37° C. in a humidified incubator.
Following that, 15 μL of QuantiLuc detection reagent (InvivoGen #rep-qlcg5) were added to each well using a MultiDrop Combi. Measurement was done immediately after the addition using an EnVision reader (US-luminescence read-mode).
Data Evaluation and Calculation:
For data evaluation and calculation, the measurement of the low control was set as 0% control and the measurement of the high control was set as 100% control. The IC50 values were calculated using the standard 4 parameter logistic regression formula. Calculation: [y=(a−d)/(1+(x/c)^b)+d], a=low value, d=high value; x=conc M; c=IC50 M; b=slope

Human cGAS enzyme = Human cGAS enzyme (Homo sapiens (Human), UniProt Q8N884); assay: Human cGAS enzyme assay (hcGAS IC50, in vitro), cGAMP formation by RapidFire MS; format: biochemical;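 also: recombinant human cGAS activated by 45 bp dsDNA with 30 µM each ATP and GTP, 90 min, cGAMP vs cyclic-di-GMP standard by MS, 8-point titration from 10 µM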
Chain of Human cGAS enzyme (Q8N884 whole entry): as above

[6] = molecular target: T1, cellular cGAS activity in dsDNA-stimulated human whole blood; assay: Human whole blood assay (hWB IC50): IFNα2a production after dsDNA transfection; format: cell-based;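 also: IFNα-2a in plasma measured by MSD electrochemiluminescence immunoassay after 22 h at 37 °C, 8-point dilution series from 10 µM top concentration, DMSO wells as controls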
[7] = Table 1, virus-stimulated THP1 cells, read-out: THP(vir) IC50
[8] = Table 1, cGAMP-stimulated THP1 cells, read-out: THP(cGAMP) IC50
[9] = Table 1, dsDNA-stimulated human whole blood

Row | IC50 [4, 7] | IC50 (Human cGAS enzyme; Table 1) | IC50 [6, 9] | Structure (SMILES) | IC50 [1] | IC50 [2] | IC50 [3] | IC50 [5, 8] | Ratio THP(cGAMP) IC50/ THP(vir) IC50 ([5]; Table 1) | other results
1 | – | – | – | C#Cc1cnc(O[C@H]2C[C@@H](C(=O)OC)N(c3nc(C(F)(F)F)nc4c3oc3ccccc34)C2)c(N2CCOC3(COC3)[C@@H]2C)c1 [P03 of PCT/EP2022/062480] | 22800 nM | 1090 nM | 188 nM | – | – | –
2 | – | – | – | COC(=O)[C@@H]1C[C@H](Oc2ncccc2N2CCOC3(COC3)[C@@H]2C)CN1c1nc(C(F)F)nc2c1oc1ccccc12 [P01 of PCT/EP2022/062480] | 26100 nM | 1310 nM | 358 nM | – | – | –
3 | – | – | – | COC(=O)[C@@H]1C[C@H](Oc2ncc(Cl)cc2[C@@]2(OC)CC(C)(C)S(=O)(=O)C[C@@H]2C)CN1c1nc(C(F)F)nc2c1oc1ccccc12 [P03 of PCT/EP2022/062496] | 20600 nM | 1990 nM | 202 nM | – | – | –
4 | – | – | – | C#Cc1cnc(O[C@H]2C[C@@H](C(=O)O)N(c3nc(C(F)(F)F)nc4c3oc3ccccc34)C2)c([C@@]2(F)CCS(=O)(=O)C[C@@H]2C)c1 [Ex. 2.12 of PCT/EP2022/062496] | 21800 nM | 8 nM | 8 nM | – | – | –
5 | – | – | – | CO[C@]1(c2cc(Cl)cnc2O[C@H]2C[C@@H](C(=O)O)N(c3nc(C(F)F)nc4c3oc3ccccc34)C2)CC(C)(C)S(=O)(=O)C[C@@H]1C [Ex. 1.05 of PCT/EP2022/062496] | 13200 nM | 135 nM | 44 nM | – | – | –
6 | – | – | – | COc1ncccc1-c1cnc(O[C@H]2C[C@@H](C(=O)O)N(c3nc(C(F)(F)F)nc4c3oc3ccccc34)C2)c(N2CCOC3(COC3)[C@@H]2C)c1 [Ex. 3.14 of PCT/EP2022/062480] | 7830 nM | 26 nM | 10 nM | – | – | –
7 | – | – | – | C[C@@H]1N(c2cc(Br)cnc2O[C@H]2C[C@@H](C(=O)O)N(c3nc(C(F)(F)F)nc4c3oc3ccccc34)C2)CCOC12COC2 [Ex. 1.10 of PCT/EP2022/062480] | 16100 nM | 33 nM | 91 nM | – | – | –
8 | – | – | – | COC(=O)[C@@H]1C[C@H](Oc2ncc(Cl)cc2[C@@]2(F)CCS(=O)(=O)C[C@@H]2C)CN1c1nc(C(F)F)nc2c1oc1ccccc12 [P02 of PCT/EP2022/062496] | > 16600 nM | 140 nM | 29 nM | – | – | –
9 | – | – | – | C#Cc1cnc(O[C@H]2C[C@@H](C(=O)OC)N(c3nc(C(F)(F)F)nc4c3oc3ccccc34)C2)c([C@@]2(F)CCS(=O)(=O)C[C@@H]2C)c1 [P01 of PCT/EP2022/062496] | > 16600 nM | 67 nM | 11 nM | – | – | –
10 | 12 nM | 3 nM | 11 nM | C[C@H]1CN2CC[C@]1(F)c1cc(Cl)cnc1O[C@H]1C[C@@H](C(=O)O)N(C1)c1nc(nc3c1oc1ccccc13)CCCOCC2=O [Example 37, (1R,9S,11S,33S)-4-chloro-1-fluoro-33-methyl-30-oxo-8,15,28-trioxa-6,12,23,31,36-pentaaza-heptacyclo[29.2.2.1^9,12.1^13,24.0^2,7.0^14,22.0^16,21]heptatriaconta-2,4,6,13(36),14(22),16(21),17,19,23-nonaene-11-carboxylic acid] | – | – | – | 11000 nM | 884 | –
11 | – | – | – | COC(=O)[C@@H]1C[C@H](Oc2ncc(-c3cccnc3OC)cc2N2CCOC3(COC3)[C@@H]2C)CN1c1nc(C(F)(F)F)nc2c1oc1ccccc12 [P04 of PCT/EP2022/062480] | > 16600 nM | 2750 nM | 67 nM | – | – | –
12 | 73 nM | 8 nM | 146 nM | CC(=O)c1cnc2c(c1)[C@@]1(F)CCN(C[C@@H]1C)C(=O)CCCOCCc1nc(c3oc4ccccc4c3n1)N1C[C@H](C[C@H]1C(=O)O)O2 [Example 19] | – | – | – | > 10000 nM | 136 | –
13 | 130 nM | 7 nM | 79 nM | C[C@H]1CN2CC[C@]1(F)c1cc(Cl)cnc1O[C@H]1C[C@@H](C(=O)O)N(C1)c1nc(nc3c1oc1ccccc13)CCCCCC2=O [Example 36] | – | – | – | > 10000 nM | 80 | –
14 | 110 nM | 17 nM | 115 nM | C[C@H]1CN2CC[C@]1(F)c1cc(Cl)cnc1O[C@H]1C[C@@H](C(=O)O)N(C1)c1nc(nc3c1oc1ccccc13)CC(=O)NCCOC2=O [Example 02, (1R,9S,11S,34S)-4-chloro-1-fluoro-34-methyl-26,31-dioxo-8,15,30-trioxa-6,12,23,27,32,37-hexaazaheptacyclo[30.2.2.1^9,12.1^13,24.0^14,22..0^16,21]octatriaconta-2,4,6,13(37),14(22),16(21),17,19,23-nonaene-11-carboxylic acid] | – | – | – | > 10000 nM | 94 | –
15 | 36 nM | 15 nM | 136 nM | C[C@H]1CN2CC[C@]1(F)c1cc(Cl)cnc1O[C@H]1C[C@@H](C(=O)O)N(C1)c1nc(nc3c1oc1ccccc13)COCCOCC2=O [Example 14] | – | – | – | > 10000 nM | 282 | –
16 | – | – | – | CC(C)(C(=O)N[C@H]1C[C@@H](C(=O)O)N(c2nc(C(F)(F)F)nc3c2oc2ccccc23)C1)c1cn[nH]c1 [compound 58] | – | – | – | – | – | IC50 ([4]; Table 2, compounds from WO 2020/142729, read-out: THP1(vir) IC50): 21000 nM; IC50 ([5]; Table 2, compounds from WO 2020/142729, read-out: THP1(cGAMP) IC50): 23000 nM; IC50 (Human cGAS enzyme; Table 2, compounds from WO 2020/142729 re-tested in the applicant's assay): 320 nM; IC50 ([6]; Table 2, compounds from WO 2020/142729): > 9980 nM
17 | 3 nM | 3 nM | 8 nM | C[C@H]1CN2CC[C@]1(F)c1cc(Cl)cnc1O[C@H]1C[C@@H](C(=O)O)N(C1)c1nc(nc3c1oc1ccccc13)CCOCCC2=O [Example 38, (1R,9S,11S,33S)-4-chloro-1-fluoro-33-methyl-30-oxo-8,15,27-trioxa-6,12,23,31,36-pentaaza-heptacyclo[29.2.2.1^9,12.1^13,24.0^2,7.0^14,22.0^16,21]heptatriaconta-2,4,6,13(36),14(22),16(21),17,19,23-nonaene-11-carboxylic acid] | – | – | – | > 10000 nM | 2964 | –
18 | 3 nM | 5 nM | 7 nM | C[C@H]1CN2CC[C@]1(F)c1cc(Cl)cnc1O[C@H]1C[C@@H](C(=O)O)N(C1)c1nc(nc3c1oc1ccccc13)C(F)(F)COCCCC2=O [Example 21, (1R,9S,11S,34S)-4-chloro-1,25,25-trifluoro-34-methyl-31-oxo-8,15,27-trioxa-6,12,23,32,37-penta-azaheptacyclo[30.2.2.1^9,12.1^13,24.0^2,7.0^14,22.0^16,21]octatriaconta-2,4,6,13(37),14(22),16(21),17,19,23-nonaene-11-carboxylic acid] | – | – | – | 10000 nM | 3281 | –
19 | 18 nM | 18 nM | 38 nM | COc1cc(-c2cnc3c(c2)[C@@]2(F)CCN(C[C@@H]2C)C(=O)CCCOCCc2nc(c4oc5ccccc5c4n2)N2C[C@H](C[C@H]2C(=O)O)O3)c(F)cn1 [Example 20.03] | – | – | – | 5900 nM | 321 | –
